Species: Rattus norvegicus
Experiment: Open TG-GATES - Regimen: Daily Repeat
Format: toxicity, organism-based, Sprague-Dawley
Design: regimen Daily Repeat, gender Male, age 6 weeks
Conditions: in vivo, po, 0 mg/kg, route gavage, dose level Control; for APTT / Bas / Eos / Fbg / Hb / Ht / Lym / MCH / MCHC / MCV / Mono / Neu / PT / Plat / RBC / Ret / WBC: tissue Blood; for KIDNEY_L / KIDNEY_R / KIDNEY_TOTAL: tissue Kidney; for LIVER: tissue Liver; for A/G / ALP / ALT / AST / BUN / CRE / Ca / Cl / DBIL / GLC / IP / K / LDH / Na / PL / RALB / TBIL / TC / TG / TP / gamma-GTP: tissue Plasma

## CCC1(c2ccccc2)C(=O)NC(=O)NC1=O [PHENOBARBITAL]
72 h, time 3 day
  TERMINAL_BW: 222.1 g
  APTT: 15.6 s
  Bas: 0%
  Eos: 0.6%
  Fbg: 225 mg/dL
  Hb: 13.2 g/dL
  Ht: 39.4%
  Lym: 76.8%
  MCH: 22.4 pg
  MCHC: 33.6%
  MCV: 66.9 fL
  Mono: 7.4%
  Neu: 15.2%
  PT: 12 s
  Plat: 126.6 x10_4/uL
  RBC: 589.6 x10_4/ul
  Ret: 7.7%
  WBC: 129.8 x10_2/uL
  KIDNEY_L: 0.9 g
  KIDNEY_R: 1 g
  KIDNEY_TOTAL: 1.9 g
  LIVER: 11.2 g
  A/G: 1.6
  ALP: 912.8 IU/L
  ALT: 34 IU/L
  AST: 61.4 IU/L
  BUN: 16 mg/dL
  CRE: 0.5 mg/dL
  Ca: 10.8 mg/dL
  Cl: 106.6 meq/L
  DBIL: 0.01 mg/dL
  GLC: 201.8 mg/dL
  IP: 7.9 mg/dL
  K: 4.9 meq/L
  LDH: 84.2 IU/L
  Na: 139.4 meq/L
  PL: 158.6 mg/dL
  RALB: 3.6 g/dL
  TBIL: 0.4 mg/dL
  TC: 80.2 mg/dL
  TG: 142.6 mg/dL
  TP: 5.9 g/dL
  gamma-GTP: 1.8 IU/L
[…], time 7 day
  TERMINAL_BW: 254.1 g
  APTT: 15.9 s
  Bas: 0%
  Eos: 0.8%
  Fbg: 224.8 mg/dL
  Hb: 14.2 g/dL
  Ht: 42.7%
  Lym: 82.2%
  MCH: 21.9 pg
  MCHC: 33.4%
  MCV: 65.5 fL
  Mono: 6.8%
  Neu: 10.4%
  PT: 11.9 s
  Plat: 110.9 x10_4/uL
  RBC: 652 x10_4/ul
  Ret: 6.1%
  WBC: 125.6 x10_2/uL
  KIDNEY_L: 1 g
  KIDNEY_R: 1 g
  KIDNEY_TOTAL: 2.1 g
  LIVER: 12.4 g
  A/G: 1.5
  ALP: 1114.2 IU/L
  ALT: 32 IU/L
  AST: 62 IU/L
  BUN: 19.2 mg/dL
  CRE: 0.5 mg/dL
  Ca: 10.9 mg/dL
  Cl: 104.6 meq/L
  DBIL: 0.054 mg/dL
  GLC: 206.4 mg/dL
  IP: 7.9 mg/dL
  K: 4.9 meq/L
  LDH: 99.8 IU/L
  Na: 139.4 meq/L
  PL: 158.2 mg/dL
  RALB: 3.5 g/dL
  TBIL: 0.3 mg/dL
  TC: 73 mg/dL
  TG: 150 mg/dL
  TP: 5.9 g/dL
  gamma-GTP: 1.4 IU/L
[…], time 14 day
  TERMINAL_BW: 296 g
  APTT: 16.5 s
  Bas: 0%
  Eos: 0.4%
  Fbg: 241.4 mg/dL
  Hb: 14.7 g/dL
  Ht: 44.1%
  Lym: 88.2%
  MCH: 20.6 pg
  MCHC: 33.4%
  MCV: 61.9 fL
  Mono: 3.6%
  Neu: 7.8%
  PT: 11.6 s
  Plat: 113.2 x10_4/uL
  RBC: 713.2 x10_4/ul
  Ret: 5.1%
  WBC: 153.7 x10_2/uL
  KIDNEY_L: 1.1 g
  KIDNEY_R: 1.1 g
  KIDNEY_TOTAL: 2.2 g
  LIVER: 13.5 g
  A/G: 1.5
  ALP: 764.6 IU/L
  ALT: 31.4 IU/L
  AST: 63.4 IU/L
  BUN: 19 mg/dL
  CRE: 0.6 mg/dL
  Ca: 10.6 mg/dL
  Cl: 105.4 meq/L
  DBIL: 0.002 mg/dL
  GLC: 207.8 mg/dL
  IP: 8.4 mg/dL
  K: 4.5 meq/L
  LDH: 102.4 IU/L
  Na: 141.4 meq/L
  PL: 159.4 mg/dL
  RALB: 3.8 g/dL
  TBIL: 0.2 mg/dL
  TC: 75.4 mg/dL
  TG: 138.6 mg/dL
  TP: 6.3 g/dL
  gamma-GTP: 0.8 IU/L
[…], time 28 day
  TERMINAL_BW: 396.2 g
  APTT: 17 s
  Bas: 0%
  Eos: 0.8%
  Fbg: 236 mg/dL
  Hb: 14.8 g/dL
  Ht: 44.6%
  Lym: 84.4%
  MCH: 19.3 pg
  MCHC: 33.2%
  MCV: 58.2 fL
  Mono: 5.6%
  Neu: 9.4%
  PT: 12 s
  Plat: 109 x10_4/uL
  RBC: 766 x10_4/ul
  Ret: 2.6%
  WBC: 129.1 x10_2/uL
  KIDNEY_L: 1.4 g
  KIDNEY_R: 1.4 g
  KIDNEY_TOTAL: 2.8 g
  LIVER: 16.7 g
  A/G: 1.5
  ALP: 596.8 IU/L
  ALT: 29.6 IU/L
  AST: 56.2 IU/L
  BUN: 20 mg/dL
  CRE: 0.4 mg/dL
  Ca: 10.4 mg/dL
  Cl: 106.4 meq/L
  DBIL: 0.006 mg/dL
  GLC: 201 mg/dL
  IP: 8 mg/dL
  K: 4.5 meq/L
  LDH: 86 IU/L
  Na: 140.4 meq/L
  PL: 165.8 mg/dL
  RALB: 3.9 g/dL
  TBIL: 0.3 mg/dL
  TC: 76.4 mg/dL
  TG: 213.2 mg/dL
  TP: 6.5 g/dL
  gamma-GTP: 1.4 IU/L

Reference: ChEMBL document CHEMBL3885861, “Open TG-GATES”
